Assays:
MLL1 = experiment: Western blot of full-length MLL1 protein levels in cells treated with CKII inhibitors; type: cell-based, human; settings: 30 hours
Procedure: FIG. 5. CKII inhibitors selectively increase full-length MLL1 protein levels by decreasing the phosphorylation of MLL1 near the cleavage sites. (A) Conservation of the sequences flanking MLL1-CS2, MLL2 and TFIIA cleavage sites and phosphorylated serine and threonine residues after the cleavage sites (highlighted in red). (B) and (C) 293T cells were transfected with vector control (VT), WT, AA or DD reporter constructs of MLL1-p75 or TFIIA. Western blot was performed with anti-Flag antibody for MLL1 (p75: FL, p47: cleaved) or TFIIA (p54: FL, p47: cleaved). (D) and (E) 293T cells were transfected with WT or AA reporter constructs of MLL1-p75 or TFIIA in the presence or absence of HA-taspase1. Western blot was performed with anti-Flag antibody for MLL1 or TFIIA, or anti-HA antibody for taspase1. (F) 293T cells were infected with shRNAs against CKIIα or CKIIα′. Western blot was performed with anti-MLL1C antibody for MLL1 full-length protein levels, and CKIIα or CKIIα′ for knockdown efficiency. (G) 293T cells were treated with DMSO or 10 μM CX-4945 for 30 hours. Cells were harvested and lysed for Western blot against MLL1, MLL2 or TFIIA using β-tubulin as the loading control. (H) and (I) 293T taspase1 KO cells were pre-treated with CX-4945 (3 μM) or TTP22 (10 μM) for 30 hours. Whole cell lysates from the two conditions were incubated with increasing concentrations of his-taspase1 and subject to in vitro taspase1 assay.
FIG. 13. CKII inhibitors increase full-length MLL1 protein levels. (A) Prediction of kinases that phosphorylate MLL1 near the taspase1 cleavage site. (B) Structure of the CKII inhibitors CX-4945, TTP22, DMAT and TTB. (C) Comparison of the IC50 and molecular weight of the four CKII inhibitors. […] Quantification of the band intensities was performed by ImageJ software. (E) and (F) in vitro taspase1 cleavage assay. Taspase1 KO cell lysates were incubated with recombinant his-tagged taspase1 (0, 1, 10, 100 or 1000 ng) and subject to in vitro taspase1 cleavage assay. Cleavage efficiency was shown as the blotting for MLL1 and TFIIA using Hsp90 as the loading control.
Cell culture. […]

JUP and SLC43A2 mRNA = experiment: mRNA levels of JUP and SLC43A2 genes in SEM cells; type: cell-based, human
Procedure: RNA-seq Analysis. Gene count tables were constructed using HTseq (Anders et al. 2015) with Ensembl gene annotations and used as input for edgeR 3.0.8 (Robinson et al. 2010). Genes with Benjamini-Hochburg adjusted p-values less than 0.01 were considered to be differentially expressed. GO enrichment analysis was evaluated by the MetaScape online software suite (Tripathi et al. 2015).

O=C(O)c1ccc2c(c1)nc(Nc1cccc(Cl)c1)c1ccncc12 [CX-4945, 5-(3-chlorophenylamino)benzo[c][2,6]naphthyridine-8-carboxylic acid]
conversion from cleaved MLL1 to full-length MLL1 (MLL1; 293T cells, 10 μM): increased the conversion from cleaved MLL1 to full-length MLL1 | MLL1 full-length protein levels (MLL1; 293T, MCF7 and HCT116 cells, 0-20 μM, Western blot with MLL1C antibody): dose-dependent increase of MLL1 full-length protein levels | mRNA levels of JUP and SLC43A2 genes (JUP and SLC43A2 mRNA): decrease of mRNA levels

— US11071727B2, “Therapeutic targeting of proteolytic cleavage of the mixed lineage leukemia gene product (MLL1) by taspase1 using kinase inhibitors” (Northwestern University, priority 2018, dated 2021)
